# Laboratory results taken from patent US7452880B2, “Substituted pyrazolo [3,4-d] pyrimidines and methods of using the same” (priority 2004, dated 2008).
# pIC50: −log10 of the molar value.
# Columns and labels:
# [1] = biological target: T1, p38 MAP kinase (Homo sapiens, UniProt Q16539); test: p38 (MAP) kinase in vitro assay (transfer of γ-33P-phosphate from ATP to Myelin Basic Protein); format: biochemical; settings: phosphorylated recombinant p38 MAP kinase, MBP substrate, γ-33P-ATP, 30° C.
# T1 construct: made in house; host or cells: E. coli (co-expressed with SEK-1 and MEKK to obtain the phosphorylated form)
# Procedure: This example illustrates a p38 (MAP) kinase in vitro assay useful for evaluating the compounds of the invention.
# The p38 MAP kinase inhibitory activity of compounds of this invention in vitro was determined by measuring the transfer of the γ-phosphate from γ-^33P-ATP by p-38 kinase to Myelin Basic Protein (MBP), using a minor modification of the method described in Ahn, et al., J. Biol. Chem. 266:4220-4227 (1991).
# The phosphorylated form of the recombinant p38 MAP kinase was co-expressed with SEK-1 and MEKK in E. Coli (see, Khokhlatchev, et al., J. Biol. Chem. 272:11057-11062 (1997)) and then purified by affinity chromatography using a Nickel column.
# The phosphorylated p38 MAP kinase was diluted in kinase buffer (20 mM 3-(N-morpholino)propanesulfonic acid, pH 7.2, 25 mM β-glycerol phosphate, 5 mM ethylene glycol-bis(beta-aminoethyl ether)-N,N,N′,N′-tetraacetic acid, 1 mM sodium ortho-vanadate, 1 mM dithiothreitol, 40 mM magnesium chloride). Test compound dissolved in DMSO or only DMSO (control) was added and the samples were incubated for 10 min at 30° C. The kinase reaction was initiated by the addition of a substrate cocktail containing MBP and γ-^33P-ATP. […] The phosphorylated MBP was then separated from the residual γ-^33P-ATP using a phosphocellulose membrane (Millipore, Bedfrod, Mass.) and quantitated using a scintillation counter (Packard, Meriden, Conn.).
# T1 sequence (Q16539 whole entry): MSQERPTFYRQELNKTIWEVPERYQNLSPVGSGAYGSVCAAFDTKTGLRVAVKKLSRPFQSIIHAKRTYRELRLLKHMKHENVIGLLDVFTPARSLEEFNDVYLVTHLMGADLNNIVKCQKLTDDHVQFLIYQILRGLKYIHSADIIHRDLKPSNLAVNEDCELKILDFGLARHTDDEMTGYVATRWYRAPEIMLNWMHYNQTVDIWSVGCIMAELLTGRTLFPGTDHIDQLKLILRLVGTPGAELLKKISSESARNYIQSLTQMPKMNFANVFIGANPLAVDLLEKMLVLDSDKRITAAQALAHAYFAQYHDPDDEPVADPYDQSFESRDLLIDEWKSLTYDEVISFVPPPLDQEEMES
Compound,melting point,pIC50 [1]
"COc1ccccc1-c1n[nH]c2cc(Oc3ccc(F)cc3F)cnc12 [Compound 98, 6-(2,4-Difluoro-phenoxy)-3-(2-methoxy-phenyl)-1H-pyrazolo[4,3-b]pyridine]",143.2 to 144.9 °C,
"FC(F)(F)c1ccccc1Oc1ncc2c(-c3ccccc3Cl)n[nH]c2n1 [Compound 13, 3-(2-Chloro-phenyl)-6-(2-trifluoromethyl-phenoxy)-1H-pyrazolo[3,4-d]pyrimidine]",55.3 to 56.1 °C,
"Clc1ccccc1Oc1ncc2c(-c3cccs3)n[nH]c2n1 [Compound 22, 6-(2-Chloro-phenoxy)-3-thiophen-2-yl-1H-pyrazolo[3,4-d]pyrimidine]",221.3 to 223.1 °C,

# More lines, now with the values ahead:
melting point,pIC50 [1],Compound
,~8.00,"Fc1ccc(Oc2ncc3c(-c4ccccc4Cl)n[nH]c3n2)c(F)c1 [Compound 3, 3-(2-Chloro-phenyl)-6-(2,4-difluoro-phenoxy)-1H-pyrazolo[3,4-d]pyrimidine]"
177.6 to 183.2 °C,,"COc1ccc(F)c(-c2n[nH]c3nc(Oc4ccc(F)cc4F)ncc23)c1 [Compound 64, 6-(2,4-Difluoro-phenoxy)-3-(2-fluoro-5-methoxy-phenyl)-1H-pyrazolo[3,4-d]pyrimidine]"
